According to patent US20040057926A1, “Modulation of the immune response through the manipulation of arginine levels” (LSU Medical Center, priority 2002, published 2004):

Legend:
[1] = test system: peritoneal macrophages (PM); assay: Extra-cellular L-Arg concentration in supernatants of peritoneal macrophages (HPLC); assay type: cell-based, mice; conditions: for extra-cellular L-Arg levels (mean of three experiments): L-Arg 2 mM, NOHA 100 μM, Nor-NOHA 50 μM; for rapid decrease in the extra-cellular levels of L-Arg: PM stimulated with IL-4+IL-13
Method: Jurkat T-cells, a CD4^+ cell line (Clone E6-1) (ATCC, Manassas, Va.) and normal stimulated T-cells were used to test the effect of ASE I, ASE II and iNOS produced by PM on CD3ζ expression. Six-week old female C57BL/6 mice were used to isolate peritoneal macrophages (PM). Briefly, 3 ml of thioglycolate-brewer (Becton Dickinson, San Jose, Calif.) were injected into the peritoneal cavity of mice for 3 days. Mice were then sacrificed and PM isolated by washing the peritoneum with HBSS. After 2 days of culture in RPMI with 4% fetal bovine serum, unattached cells were washed off and attached cells were used in co-cultures with Jurkat or normal T-cells.
(§1) PM were cultured in 6 well plates in RPMI containing 150 μM L-Arg and stimulated with murine rIL-4 (50 U/ml) and murine rIL-13 (50 ng/ml), or murine rIFN-γ (100 U/ml) for 24 hours. Then 1×10^6 normal T-cells stimulated with anti-CD3 plus anti-CD28 or 1×10^6 Jurkat cells, were cultured in the top chamber of a transwell system having 0.4 μm pores (Falcon, Franklin lakes, N.J.). CD3ζ expression was measured in Jurkat cells or T lymphocytes at different time points. PM were detached using trypsin/EDTA and the expression of protein and RNA for CAT-2B, ASE I, ASE II and iNOS was tested by western blot and northern blot respectively. Cytoplasmic extracts from PM were used to test ASE activity. Supernatants from stimulated PM were used to measure NO production using the Griess reagent method (Molecular Probes, Eugene, Oreg.). In addition, the extra-cellular concentration of L-Arg was tested in supernatants by HPLC (Dr. Gu Yao Wu laboratory, University of Texas) as described previously. O'Quinn, P. R., D. A. Knabe, and G. Wu. 2002. Arginine catabolism in lactating porcine mammary tissue. J Anim Sci. 80:467-474.

Jurkat cells [2] = assay: Co-culture in transwells of stimulated PM and Jurkat cells, CD3ζ expression; assay type: cell-based; conditions: for CD3ζ in Jurkat cells co-cultured with PM stimulated with IL-4+IL-13: NOHA 100 μM, Nor-NOHA 50 μM, L-Arg 2 mM, L-NIL 5 μg/ml, catalase 200 U/ml, L-NMMA, L-NNA, L-NAME 1 mM
Method: as §1
Flow cytometry analysis was performed as previously described. Taheri, F., J. B. Ochoa, Z. Faghiri, K. Culotta, H. J. Park, M. S. Lan, A. H. Zea, and A. C. Ochoa. 2001. L-Arginine regulates the expression of the T-cell receptor zeta chain (CD3zeta) in Jurkat cells. Clin Cancer Res 7:958s-965s. Briefly, 5×10^5 Jurkat cells or T lymphocytes were washed once with Dulbecco phosphate-buffered saline 1× (D-PBS) and resuspended in 200 μL of D-PBS containing 1 μg of anti-CD3ε or isotype control. Cells were incubated for 15 min at 4° C., washed with D-PBS and resuspended in 200 μl D-PBS containing 500 μg/ml of digitonin plus 1 μg of anti-CD3ζ or 1 μg of isotypic control. Cells were incubated for 8 minutes after which they were washed and resuspended in 400 μl of D-PBS. Fluorescence acquisition and analysis were done using a Coulter-EPICS XL flow cytometer (Beckman-Coulter) with a 488 nm argon laser. The data were expressed as mean channel fluorescence intensity (MFI).

Jurkat cells [3] = assay: Proliferation of Jurkat cells with H. pylori sonicate (3H-thymidine); assay type: cell-based; conditions: NOHA 10 μg/ml, L-arginine 2 mM; sonicate 50 μg/ml
Method: Unless otherwise stated, the cells were always cultured in RPMI 1640 (Gibco Life-Technologies; Rockville, Md.) which contains 1104 μM L-arginine, 2.5 mM of L-glutamine, (Gibco), 25 mM HEPES (Gibco), 100 μg/ml of penicillin/streptomycin (Gibco), and 10% heat inactivated FCS (Hyclone). Jurkat cells were maintained at 0.5×10^6/ml. For proliferation assays Jurkat cells or peripheral blood mononuclear cells (PBMC) were placed at 2×10^5/well in round-bottom 96-well plates (Corning; Corning, N.Y.) and incubated for 2 h with increasing concentrations of the H. pylori sonicate ranging from 0.01 μg/ml to 100 μg/ml. After this, 30 ng/ml of anti-CD3 (Ortho Diagnostics, Raritan, N.J.) and 100 ng/ml of anti-CD28 (Becton-Dickinson Biosciences; Palo Alto, Calif.) were added to the PBMC. Jurkat cells were incubated for an additional 24 h and the PBMC for 48 h. […] The cells were collected onto glass fiber filters (Unifilter GF/B; Packard Bioscience; Meriden, Conn.) and radioactivity was counted in a Beta counter (Microplate Scintillation and Luminiscence Counter, TopCount, Packard).
[…] After addition of the sonicate plus NOHA or sonicate plus L-arginine mixture to the Jurkat cells, 1.0 μCi of ^3H-thymidine (NEN) was added per well, the cells were incubated at 37° C. for 18 h, harvested onto filters and counted in a β-counter (Packard).

purified T-cells = assay: CD3ζ expression in stimulated purified T-cell cultures with H. pylori sonicate; assay type: cell-based, human; conditions: sonicate 20 μg/ml, L-arginine 400 μM
Method: After isolating peripheral blood mononuclear cells by Ficoll-Paque Plus (Amersham Pharmacia Biotech; Piscataway, N.J.), T-cells were purified by negative selection by using an affinity column (R & D Systems; Minneapolis, Minn.). The purity was always >90% T-cells as measured by the expression of CD3ε. H. pylori extracts or live H. pylori have no effect on resting T-cells, therefore T-cells were stimulated by cross linking anti-CD3 plus anti-CD28 as follows: 24 well plates were coated with 0.3 ml of goat-anti mouse (GAM) (Kirkegaard & Perry Laboratories; Gaithersburg, Md.) at 10 μg/ml in HBSS for 1 h. After washing twice with Hank's balanced salt solution (HBSS), 0.5×10^6 of purified T-cells were added per well in 1 ml of RPMI without L-arginine containing 1 μg/ml of anti-human CD3 (Ortho Diagnostics, Raritan, N.J.) and 100 ng/ml of anti-human CD28 (Becton-Dickinson) and cultured for 24 h. After this time L-arginine was added to the wells to give a final concentration of 0.4 mM. H. pylori sonicate (20 μg/ml) from either the wild type strain ATCC 43504 or its rocF (−) isogenic mutant was also added to the wells. After 24 h under these conditions, the cells were recovered and stained for CD3ζ. Six different donors were tested. […]

[4] = PM stimulated with IL-4 + IL-13

Row | SMILES | extra-cellular L-Arg levels (mean of three experiments) ([1]; Non-stimulated PM) [µM] | extra-cellular L-Arg levels (mean of three experiments) [1, 4] [µM] | rapid decrease in the extra-cellular levels of L-Arg [1] | CD3ζ in Jurkat cells co-cultured with PM stimulated with IL-4+IL-13 (Jurkat cells [2]) | Jurkat cell proliferation in the presence of H. pylori sonicate (Jurkat cells [3]) | re-expression of CD3ζ on addition after 24 hours of co-culture (Jurkat cells [2]; 2 mM added, CD3ζ tested 24 hours later) | CD3ζ expression in stimulated T-cells (purified T-cells)
1 | NC(=NCCC[C@H](N)C(=O)O)NO [NOHA, NG-hydroxy-L-arginine] | 101.6 | 75.6 | partially blocked the rapid decrease | prevented the decrease of CD3ζ | prevented the decrease in Jurkat cell proliferation |  | 
2 | N=C(N)NCCC[C@H](N)C(=O)O [L-arginine] | 1267 | 59.8 | partially blocked the rapid decrease | prevented the decrease of CD3ζ | prevented a decrease in cell proliferation | induced the re-expression of CD3ζ | recovered CD3ζ expression
